Test results: patent publication US9833497B2, “Human originated EGF domain proteins and use of the same” (CHENGDU SOURCEBIO LIMITED-LIABILITY COMPANY, priority 2013, dated 2017)

Key:
Assay type in all cases: cell-based
[1] = test system: Pseudomonas aeruginosa; test: MIC against Gram-negative bacteria: Pseudomonas aeruginosa; details: 5×10^5 CFU/mL; for MIC against P. aeruginosa / MIC P. aeruginosa: 96-well plate, 37° C., 10 h
Method in brief: (§1)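 MIC = lowest concentration of recombinant protein showing no growth. Test proteins: purified human-derived EGF domain proteins, two-fold dilution series, three wells per concentration; inoculum 5×10^5 CFU/mL in LB; incubation 37° C with shaking at 175 rpm.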

[2] = test system: Enterobacter cloacae; test: MIC against Gram-negative bacteria: Enterobacter cloacae; details: 5×10^5 CFU/mL; for MIC against E. cloacae / MIC E. cloacae: 96-well plate, 37° C., 10 h
Method in brief: as §1

[3] = test system: E. coli BL21; test: MIC against Gram-negative bacteria: E. coli BL21; details: 5×10^5 CFU/mL; for MIC against E. coli BL21 / MIC E. coli BL21: 96-well plate, 37° C., 10 h
Method in brief: as §1

[4] = test system: Moraxella catarrhalis; test: MIC against Gram-negative bacteria: Moraxella catarrhalis; details: 5×10^5 CFU/mL; for MIC against M. catarrhalis / MIC M. catarrhalis: 96-well plate, 37° C., 10 h
Method in brief: as §1

[5] = test system: Serratia marcescens; test: MIC against Gram-negative bacteria: Serratia marcescens; details: 5×10^5 CFU/mL; for MIC against S. marcescens / MIC S. marcescens: 96-well plate, 37° C., 10 h
Method in brief: as §1

[6] = test system: E. coli DH5α; test: Antibacterial activity: MIC and growth curve against E. coli DH5α in 96-well plate; details: minimal inhibitory concentration against E. coli DH5α; 96-well plate, 5×10^5 CFU/mL, 37° C., judged after 8 h
Method in brief: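 MIC taken as lowest protein level with no bacterial growth, tracked by A600 every 30 min during 37 °C, 175 rpm culture. Two-fold protein series 50-12.5 μg/mL final, triplicate wells, against 5×10^5 CFU/mL of LB-washed mid-log cells.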

[7] = test system: Proteus vulgaris; test: MIC against Gram-negative bacteria: Proteus vulgaris; details: 5×10^5 CFU/mL; for MIC against P. vulgaris / MIC P. vulgaris: 96-well plate, 37° C., 10 h
Method in brief: as §1

[8] = test system: Proteus mirabilis; test: MIC against Gram-negative bacteria: Proteus mirabilis; details: 5×10^5 CFU/mL; for MIC against P. mirabilis / MIC P. mirabilis: 96-well plate, 37° C., 10 h
Method in brief: as §1

[9] = test system: Aeromonas hydrophila; test: MIC against Gram-negative bacteria: Aeromonas hydrophila; details: 5×10^5 CFU/mL; for MIC against A. hydrophila / MIC A. hydrophila: 96-well plate, 37° C., 10 h
Method in brief: as §1

[10] = test system: Klebsiella pneumonia; test: MIC against Gram-negative bacteria: Klebsiella pneumonia; details: 5×10^5 CFU/mL; for MIC against K. pneumonia / MIC K. pneumonia: 96-well plate, 37° C., 10 h
Method in brief: as §1

[11] = test system: Citrobacter diversus; test: MIC against Gram-negative bacteria: Citrobacter diversus; details: 5×10^5 CFU/mL; for MIC against C. diversus / MIC C. diversus: 96-well plate, 37° C., 10 h
Method in brief: as §1

**Q.** With “PRT841 (PEDECANGHHDCNETQNCHDQPHGYECSCKTGYTMDNMT; listed as Homo sapiens)” as the substance, how does the “MIC (μg/mL) P. aeruginosa” value ([1]; P. aeruginosa, 10 h cultivation at 37° C.) read?
**A.** Its value is 12.5 µg/mL.

**Q.** And the “MIC (μg/mL) E. cloacae” value ([2]; E. cloacae, 10 h cultivation at 37° C.)?
**A.** Its value is 12.5 µg/mL.

**Q.** And the “MIC (μg/mL) E. coli BL21” value ([3]; E. coli BL21, 10 h cultivation at 37° C.)?
**A.** The value was 25 µg/mL.

**Q.** What about the “MIC (μg/mL) M. catarrhalis” value ([4]; M. catarrhalis, 10 h cultivation at 37° C.) of the same substance?
**A.** The value was 50 µg/mL.

**Q.** What about the “MIC (μg/mL) S. marcescens” value ([5]; S. marcescens, 10 h cultivation at 37° C.) of the same substance?
**A.** Its value is 12.5 µg/mL.

**Q.** And the MIC [6]?
**A.** The MIC was 12.5 µg/mL.

**Q.** And the “MIC (μg/mL) P. vulgaris” value ([7]; P. vulgaris, 10 h cultivation at 37° C.)?
**A.** The value was 50 µg/mL.

**Q.** And the “MIC (μg/mL) P. mirabilis” value ([8]; P. mirabilis, 10 h cultivation at 37° C.)?
**A.** Its value is 12.5 µg/mL.

**Q.** And the “MIC (μg/mL) A. hydrophila” value ([9]; A. hydrophila, 10 h cultivation at 37° C.)?
**A.** The value was 50 µg/mL.

**Q.** What about the “MIC (μg/mL) K. pneumonia” value ([10]; K. pneumonia, 10 h cultivation at 37° C.) of the same substance?
**A.** Its value is 50 µg/mL.

**Q.** What about the “MIC (μg/mL) C. diversus” value ([11]; C. diversus, 10 h cultivation at 37° C.) of the same substance?
**A.** The value was 12.5 µg/mL.

**Q.** What does the source list for “PRT1219 (DHDSCVHGPCQNGGSCLRRLAVSSVLKSRESLPVIIVANEPLQPFLCKCLPGYAGSWCE; listed as Homo sapiens)”?
**A.** MIC against P. aeruginosa ([1]; Pseudomonas aeruginosa): 25 µg/mL; MIC against E. cloacae ([2]; Enterobacter cloacae): 50 µg/mL; MIC against E. coli BL21 ([3]; E. coli BL21): 50 µg/mL; MIC against M. catarrhalis ([4]; Moraxella catarrhalis): 25 µg/mL; MIC against S. marcescens ([5]; Serratia marcescens): 25 µg/mL; MIC [6]: 12.5 µg/mL; MIC against P. vulgaris ([7]; Proteus vulgaris): 25 µg/mL; MIC against P. mirabilis ([8]; Proteus mirabilis): 50 µg/mL; MIC against A. hydrophila ([9]; Aeromonas hydrophila): 12.5 µg/mL; MIC against K. pneumonia ([10]; Klebsiella pneumonia): 12.5 µg/mL; MIC against C. diversus ([11]; Citrobacter diversus): 25 µg/mL

**Q.** How did the “MIC against P. aeruginosa” value ([1]; Pseudomonas aeruginosa) turn out when “PRT1292 (NVDDCEDNDCENNSTCVDGINNYTCLCPPEYTGELCE; listed as Homo sapiens)” was run?
**A.** The value was 12.5 µg/mL.

**Q.** What about the “MIC against E. cloacae” value ([2]; Enterobacter cloacae) of the same substance?
**A.** Its value is 50 µg/mL.

**Q.** What about the “MIC against E. coli BL21” value ([3]; E. coli BL21) of the same substance?
**A.** Its value is 12.5 µg/mL.

**Q.** And the “MIC against M. catarrhalis” value ([4]; Moraxella catarrhalis)?
**A.** The value was 50 µg/mL.

**Q.** And the “MIC against S. marcescens” value ([5]; Serratia marcescens)?
**A.** The value was 12.5 µg/mL.

**Q.** And the MIC [6]?
**A.** The MIC was 12.5 µg/mL.

**Q.** And the “MIC against P. vulgaris” value ([7]; Proteus vulgaris)?
**A.** The value was 50 µg/mL.

**Q.** What about the “MIC against P. mirabilis” value ([8]; Proteus mirabilis) of the same substance?
**A.** Its value is 12.5 µg/mL.

**Q.** And the “MIC against A. hydrophila” value ([9]; Aeromonas hydrophila)?
**A.** Its value is 25 µg/mL.

**Q.** What about the “MIC against K. pneumonia” value ([10]; Klebsiella pneumonia) of the same substance?
**A.** The value was 12.5 µg/mL.

**Q.** What about the “MIC against C. diversus” value ([11]; Citrobacter diversus) of the same substance?
**A.** Its value is 12.5 µg/mL.

**Q.** What does the source list for “PRT650 (DIDECQQGNLCVNGQCKNTEGSFRCTCGQGYQLSAAKDQCE; listed as Homo sapiens)”?
**A.** MIC P. aeruginosa [1]: 50 µg/mL; MIC E. cloacae [2]: 50 µg/mL; MIC E. coli BL21 [3]: 25 µg/mL; MIC M. catarrhalis [4]: 25 µg/mL; MIC S. marcescens [5]: 50 µg/mL; MIC [6]: 12.5 µg/mL; MIC P. vulgaris [7]: 12.5 µg/mL; MIC P. mirabilis [8]: 50 µg/mL; MIC A. hydrophila [9]: 25 µg/mL; MIC K. pneumonia [10]: 12.5 µg/mL; MIC C. diversus [11]: 12.5 µg/mL

**Q.** “PRT735 (GEENCNVNNGGCAQKCQMVRGAVQCTCHTGYRLTEDGHTCQ; listed as Homo sapiens)” was tested. Which “MIC P. aeruginosa” value [1] did it give?
**A.** Its value is 12.5 µg/mL.

**Q.** What about the “MIC E. cloacae” value [2] of the same substance?
**A.** The value was 12.5 µg/mL.

**Q.** What about the “MIC E. coli BL21” value [3] of the same substance?
**A.** Its value is 50 µg/mL.

**Q.** What about the “MIC M. catarrhalis” value [4] of the same substance?
**A.** The value was 25 µg/mL.

**Q.** And the “MIC S. marcescens” value [5]?
**A.** The value was 25 µg/mL.

**Q.** What about the MIC [6] of the same substance?
**A.** Its MIC is 12.5 µg/mL.

**Q.** What about the “MIC P. vulgaris” value [7] of the same substance?
**A.** The value was 50 µg/mL.

**Q.** What about the “MIC P. mirabilis” value [8] of the same substance?
**A.** Its value is 12.5 µg/mL.

**Q.** What about the “MIC A. hydrophila” value [9] of the same substance?
**A.** Its value is 25 µg/mL.

**Q.** What about the “MIC K. pneumonia” value [10] of the same substance?
**A.** Its value is 25 µg/mL.

**Q.** What about the “MIC C. diversus” value [11] of the same substance?
**A.** Its value is 50 µg/mL.

**Q.** Which “MIC against P. aeruginosa” value [1] does the source give for “PRT540 (CVCHGHADACDAKDPTDPFRLQCTCQHNTCGGTCDRCCPGFNQQPWKPATANSANECQS; listed as Homo sapiens)” here?
**A.** The value was 12.5 µg/mL.

**Q.** What about the “MIC against E. cloacae” value [2] of the same substance?
**A.** Its value is 50 µg/mL.

**Q.** And the “MIC against E. coli BL21” value [3]?
**A.** The value was 50 µg/mL.

**Q.** And the “MIC against M. catarrhalis” value [4]?
**A.** Its value is 50 µg/mL.

**Q.** What about the “MIC against S. marcescens” value [5] of the same substance?
**A.** The value was 50 µg/mL.

**Q.** And the MIC [6]?
**A.** Its MIC is 12.5 µg/mL.

**Q.** What about the “MIC against P. vulgaris” value [7] of the same substance?
**A.** Its value is 12.5 µg/mL.

**Q.** And the “MIC against P. mirabilis” value [8]?
**A.** The value was 25 µg/mL.

**Q.** And the “MIC against A. hydrophila” value [9]?
**A.** Its value is 12.5 µg/mL.

**Q.** What about the “MIC against K. pneumonia” value [10] of the same substance?
**A.** The value was 12.5 µg/mL.

**Q.** What about the “MIC against C. diversus” value [11] of the same substance?
**A.** The value was 25 µg/mL.
